The values that follow come from patent publication US20220213092A1, “BICYCLIC PYRAZOLE BRUTON'S TYROSINE KINASE INHIBITORS” (AbbVie Inc., priority 2020, published 2022).

Structures are written as SMILES.

For one assay, the target named is T1, BTK (Homo sapiens, UniProt Q06187).
T1 construct: purchased Nanosyn, Santa Clara, Calif; host or cells: 293HEK
The assay is described as follows: BTK kinase electrophoretic mobility shift assay (MSA). The conditions noted are these: 50 μM ATP, 0.5 nM BTK enzyme (Nanosyn-293HEK, WT), 3 hours at 25° C.; all examples except 50, 51, 62 and 63; read-out: BTK IC50. Type of assay: biochemical.

For assay [1], the target named is T2, Phosphorylation of Y223 of BTK (Homo sapiens, UniProt Q06187).
T2 construct: host or cells: healthy human whole blood, 3 donors
T2 sequence (Q06187 whole entry): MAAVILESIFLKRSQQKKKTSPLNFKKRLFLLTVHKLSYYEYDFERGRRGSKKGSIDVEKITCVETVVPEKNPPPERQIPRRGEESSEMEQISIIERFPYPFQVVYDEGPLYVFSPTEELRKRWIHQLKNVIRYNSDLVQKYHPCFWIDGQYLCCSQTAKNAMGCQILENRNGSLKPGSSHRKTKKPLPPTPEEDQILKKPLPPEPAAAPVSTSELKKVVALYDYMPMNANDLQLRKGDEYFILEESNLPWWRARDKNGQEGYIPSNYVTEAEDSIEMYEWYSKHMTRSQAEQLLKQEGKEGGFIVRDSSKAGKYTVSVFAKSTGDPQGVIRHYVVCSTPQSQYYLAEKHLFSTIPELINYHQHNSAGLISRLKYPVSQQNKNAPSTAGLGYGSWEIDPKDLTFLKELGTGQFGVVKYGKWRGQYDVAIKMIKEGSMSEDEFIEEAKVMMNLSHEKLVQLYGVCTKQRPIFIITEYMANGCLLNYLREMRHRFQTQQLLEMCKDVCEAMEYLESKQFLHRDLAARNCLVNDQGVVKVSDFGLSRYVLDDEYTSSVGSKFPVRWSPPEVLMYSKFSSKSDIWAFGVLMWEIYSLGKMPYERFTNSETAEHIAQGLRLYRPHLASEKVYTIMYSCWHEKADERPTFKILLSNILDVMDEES
The experiment in a line: Whole blood compound screening, phosphorylation of Y223 site of BTK (MSD assay). The conditions noted are these: healthy human whole blood, 2 hours at 37° C., 3 separate donors; read-out: WB BTK-pY223 EC50. Type of assay: cell-based. As to the method: Healthy human whole blood (WB) was collected from […]™ Technologies or […]® in sodium heparinized tubes. Whole blood was stored at ambient temperature to avoid coagulation. Each compound was tested in 3 separate donors. Compound stock solutions (10 mM) were used to generate dose titration (8 concentrations, starting concentration 10 μM, 1:4 dilution) in appropriate volume of dimethyl sulfoxide (0.2%). Whole blood was incubated with compounds in 96-well plates for 2 hours in tissue culture incubators at 37° C. under a 5% CO2 atmosphere. The whole blood was lysed in equal volume of lysis buffer (Cell Signaling Technology®, Danvers, Mass.) containing complete protease inhibitor tablet, PhosSTOP™ tablet, sodium orthovanadate and sodium fluoride and phenylmethanesulfonyl fluoride solution. The lysed whole blood was then frozen at −80° C. for overnight.
Phosphorylation of Y223 of BTK was measured using an MSD assay (Meso Scale Diagnostics, LLC, Rockville, Md.). The thawed lysed whole blood was incubated with the capturing antibody rabbit anti-human BTK (D3H5) (Cell Signaling Technology, Danvers, Mass.) at 4° C. overnight. After washing out the unbound samples, the detection antibody biotinylated rabbit anti-pY223-BTK(D9T6H) (Cell Signaling Technology®, Danvers, Mass.) was added to the plates. After washing out the unbound antibodies, SULFO-TAG Streptavidin (Meso Scale Diagnostics, LLC, Rockville, Md.) was used for detection on Meso Sector S600 (Meso Scale Diagnostics, LLC, Rockville, Md.).
The EC50 values were determined using software from Dotmatics. The activity of exemplary compounds is illustrated below.

T1 sequence (Q06187 whole entry): as above

The IC50 is the concentration needed to halve the response being measured. A word on the EC50: it is the concentration giving half of the maximal effect. For `C=CC(=O)N1CCN([C@@H]2CCNc3c2nn(-c2ccc(Oc4cccc(F)c4)cc2)c3C(N)=O)CC1` [Example 67, (7R)-2-[4-(3-fluorophenoxy)phenyl]-7-[4-(prop-2-enoyl)piperazin-1-yl]-4,5,6,7-tetrahydro-2H-pyrazolo[4,3-b]pyridine-3-carboxamide], the IC50 on BTK came to 0.737 nM. Also, in assay [1], the EC50 is 18.8 nM.
With `C=CC(=O)N1CCN([C@@H]2CCNc3c2nn(-c2ccc(Oc4ccccc4C4CC4)cc2)c3C(N)=O)CC1` [Example 68, (7R)-2-[4-(2-cyclopropylphenoxy)phenyl]-7-[4-(prop-2-enoyl)piperazin-1-yl]-4,5,6,7-tetrahydro-2H-pyrazolo[4,3-b]pyridine-3-carboxamide], the IC50 on BTK worked out at 3.18 nM. In assay [1], the EC50 was determined as 96.2 nM.
For `C=CC(=O)N1CCN([C@@H]2CCNc3c2nn(-c2ccc(Oc4ccccc4C#N)cc2)c3C(N)=O)CC1` [Example 69, (7R)-2-[4-(2-cyanophenoxy)phenyl]-7-[4-(prop-2-enoyl)piperazin-1-yl]-4,5,6,7-tetrahydro-2H-pyrazolo[4,3-b]pyridine-3-carboxamide], in that order: 2.18 nM and 29.2 nM.
Consider `C=CC(=O)N1CCN([C@@H]2CCNc3c2nn(-c2ccc(Oc4ccc(F)cc4F)cc2)c3C(N)=O)CC1` [Example 70, (7R)-2-[4-(2,4-difluorophenoxy)phenyl]-7-[4-(prop-2-enoyl)piperazin-1-yl]-4,5,6,7-tetrahydro-2H-pyrazolo[4,3-b]pyridine-3-carboxamide], for which, on BTK, the 50% inhibitory concentration (IC50) was 7.09 nM. Besides, the EC50 in assay [1] is 239 nM.
Consider `C=CC(=O)N1CCN([C@@H]2CCNc3c2nn(-c2ccc(Oc4ccc(F)cc4)cc2)c3C(N)=O)CC1` [Example 71, (7R)-2-[4-(4-fluorophenoxy)phenyl]-7-[4-(prop-2-enoyl)piperazin-1-yl]-4,5,6,7-tetrahydro-2H-pyrazolo[4,3-b]pyridine-3-carboxamide], for which the 50% inhibitory concentration (IC50) at BTK came out at 22.8 nM. Moreover, in assay [1], the 50% effective concentration (EC50) stood at 279 nM.
For `C=CC(=O)N1C2CC1CN([C@H]1CCNc3c1nn(-c1ccc(Oc4ccccc4)cc1)c3C(N)=O)C2` [Example 72, (7S)-2-(4-phenoxyphenyl)-7-[6-(prop-2-enoyl)-3,6-diazabicyclo[3.1.1]heptan-3-yl]-4,5,6,7-tetrahydro-2H-pyrazolo[4,3-b]pyridine-3-carboxamide], in that order: 7.84 nM and 21.7 nM.
For `C=CC(=O)N1C2CC1CN([C@@H]1CCNc3c1nn(-c1ccc(Oc4ccccc4)cc1)c3C(N)=O)C2` [Example 73, (7R)-2-(4-phenoxyphenyl)-7-[6-(prop-2-enoyl)-3,6-diazabicyclo[3.1.1]heptan-3-yl]-4,5,6,7-tetrahydro-2H-pyrazolo[4,3-b]pyridine-3-carboxamide], in that order: 15.7 nM and 255 nM.
As for `C=CC(=O)N1CCN([C@@H]2CCNc3c2nn(-c2ccc(Oc4cc(F)ccc4F)cc2)c3C(N)=O)CC1` [Example 74, (7R)-2-[4-(2,5-difluorophenoxy)phenyl]-7-[4-(prop-2-enoyl)piperazin-1-yl]-4,5,6,7-tetrahydro-2H-pyrazolo[4,3-b]pyridine-3-carboxamide], on BTK, the concentration for half-maximal inhibition (IC50) was determined as 1.51 nM. Besides, the EC50 in assay [1] amounted to 56 nM.
For `C=CC(=O)N1CC(N2CCNc3c2nn(-c2ccc(Oc4ccccc4F)cc2)c3C(N)=O)C1` [Example 75, 2-[4-(2-fluorophenoxy)phenyl]-7-[1-(prop-2-enoyl)azetidin-3-yl]-4,5,6,7-tetrahydro-2H-pyrazolo[3,4-b]pyrazine-3-carboxamide], in that order: 1.14 nM and 61 nM.
For the molecule `C=CC(=O)N1CC(N2CCNc3c2nn(-c2ccc(Oc4cccc(F)c4F)cc2)c3C(N)=O)C1` [Example 76, 2-[4-(2,3-difluorophenoxy)phenyl]-7-[1-(prop-2-enoyl)azetidin-3-yl]-4,5,6,7-tetrahydro-2H-pyrazolo[3,4-b]pyrazine-3-carboxamide], the concentration for half-maximal inhibition (IC50) on BTK turned out to be 0.968 nM. Also, the EC50 in assay [1] came out at 85.5 nM.
In the case of `C=CC(=O)N1CCN([C@@H]2CCNc3c2nn(-c2ccc(Oc4cccc(F)c4F)cc2)c3C(N)=O)CC1` [Example 77, (7R)-2-[4-(2,3-difluorophenoxy)phenyl]-7-[4-(prop-2-enoyl)piperazin-1-yl]-4,5,6,7-tetrahydro-2H-pyrazolo[4,3-b]pyridine-3-carboxamide], the half-maximal inhibitory concentration (IC50) at BTK is 0.533 nM. The EC50 in assay [1] came out at 31.5 nM.
As for `C=CC(=O)N1CCN([C@@H]2CCNc3c2nn(-c2ccc(Oc4cccc(C5CC5)c4)cc2)c3C(N)=O)CC1` [Example 78, (7R)-2-[4-(3-cyclopropylphenoxy)phenyl]-7-[4-(prop-2-enoyl)piperazin-1-yl]-4,5,6,7-tetrahydro-2H-pyrazolo[4,3-b]pyridine-3-carboxamide], the IC50 on BTK came to 0.671 nM. The concentration giving a half-maximal response (EC50) in assay [1] is 57.9 nM.
For `C=CC(=O)N1CC(N2CCNc3c2nn(-c2ccc(Oc4ccc(F)cc4F)cc2)c3C(N)=O)C1` [Example 81, 2-[4-(2,4-difluorophenoxy)phenyl]-7-[1-(prop-2-enoyl)azetidin-3-yl]-4,5,6,7-tetrahydro-2H-pyrazolo[3,4-b]pyrazine-3-carboxamide], in that order: 5.24 nM and 75.1 nM.
The corresponding values for `C=CC(=O)N1CCN([C@@H]2CCNc3c2nn(-c2ccc(Oc4ccccc4)cc2)c3C(N)=O)CC12CC2` [Example 82, (7R)-2-(4-phenoxyphenyl)-7-[4-(prop-2-enoyl)-4,7-diazaspiro[2.5]octan-7-yl]-4,5,6,7-tetrahydro-2H-pyrazolo[4,3-b]pyridine-3-carboxamide] are 0.515 nM and 44.1 nM.
The corresponding values for `C=CC(=O)N1CCN([C@H]2CCNc3c2nn(-c2ccc(Oc4ccccc4)cc2)c3C(N)=O)CC12CC2` [Example 83, (7S)-2-(4-phenoxyphenyl)-7-[4-(prop-2-enoyl)-4,7-diazaspiro[2.5]octan-7-yl]-4,5,6,7-tetrahydro-2H-pyrazolo[4,3-b]pyridine-3-carboxamide] are 66.6 nM and 1730 nM.
Regarding `C=CC(=O)N1CCC(O)(C2CCNc3c2nn(-c2ccc(Oc4ccccc4)cc2)c3C(N)=O)CC1` (centres unmarked) [Example 84, 7-[4-hydroxy-1-(prop-2-enoyl)piperidin-4-yl]-2-(4-phenoxyphenyl)-4,5,6,7-tetrahydro-2H-pyrazolo[4,3-b]pyridine-3-carboxamide], at BTK, the half-inhibitory concentration (IC50) was determined as 1.4 nM. The EC50 in assay [1] stood at 45.6 nM.
For `C=CC(=O)N1CCN([C@@H]2CCNc3c2nn(-c2ccc(Oc4ccc(OC(F)(F)F)cc4)cc2)c3C(N)=O)CC1` [Example 85, (7R)-7-[4-(prop-2-enoyl)piperazin-1-yl]-2-{4-[4-(trifluoromethoxy)phenoxy]phenyl}-4,5,6,7-tetrahydro-2H-pyrazolo[4,3-b]pyridine-3-carboxamide], in that order: 107 nM and 2030 nM.
On to `C=CC(=O)N1CCN([C@@H]2CCNc3c2nn(-c2ccc(Oc4ccccc4C)cc2)c3C(N)=O)CC1` [Example 86, (7R)-2-[4-(2-methylphenoxy)phenyl]-7-[4-(prop-2-enoyl)piperazin-1-yl]-4,5,6,7-tetrahydro-2H-pyrazolo[4,3-b]pyridine-3-carboxamide], for which the IC50 at BTK stood at 0.706 nM. Moreover, the EC50 in assay [1] amounted to 315 nM.
On to `C=CC(=O)N1CCN([C@@H]2CCNc3c2nn(-c2ccc(Oc4ccc(OC)cc4)cc2)c3C(N)=O)CC1` [Example 87, (7R)-2-[4-(4-methoxyphenoxy)phenyl]-7-[4-(prop-2-enoyl)piperazin-1-yl]-4,5,6,7-tetrahydro-2H-pyrazolo[4,3-b]pyridine-3-carboxamide], for which the half-maximal inhibitory concentration (IC50) on BTK was found to be 3.32 nM. Moreover, the EC50 in assay [1] is 162 nM.
Take `C=CC(=O)N1CCN([C@@H]2CCNc3c2nn(-c2ccc(Oc4cccc(C)c4)cc2)c3C(N)=O)CC1` [Example 88, (7R)-2-[4-(3-methylphenoxy)phenyl]-7-[4-(prop-2-enoyl)piperazin-1-yl]-4,5,6,7-tetrahydro-2H-pyrazolo[4,3-b]pyridine-3-carboxamide]: the half-inhibitory concentration (IC50) on BTK came out at 0.797 nM. Also, the EC50 in assay [1] came out at 225 nM.
For the molecule `C=CC(=O)N1CCN([C@@H]2CCNc3c2nn(-c2ccc(Oc4cccc(OC(F)(F)F)c4)cc2)c3C(N)=O)CC1` [Example 89, (7R)-7-[4-(prop-2-enoyl)piperazin-1-yl]-2-{4-[3-(trifluoromethoxy)phenoxy]phenyl}-4,5,6,7-tetrahydro-2H-pyrazolo[4,3-b]pyridine-3-carboxamide], the IC50 on BTK stood at 1.75 nM. For the same molecule, the concentration for a half-maximal effect (EC50) in assay [1] was determined as 525 nM.
As to `C=CC(=O)N1CCN([C@@H]2CCNc3c2nn(-c2ccc(Oc4ccccc4OC(F)(F)F)cc2)c3C(N)=O)CC1` [Example 90, (7R)-7-[4-(prop-2-enoyl)piperazin-1-yl]-2-{4-[2-(trifluoromethoxy)phenoxy]phenyl}-4,5,6,7-tetrahydro-2H-pyrazolo[4,3-b]pyridine-3-carboxamide], the concentration for half-maximal inhibition (IC50) at BTK is 1.29 nM. For the same molecule, the concentration for a half-maximal effect (EC50) in assay [1] was 933 nM.
